Laboratory results: ChEMBL document CHEMBL6153174, “Design and Synthesis of Novel Deazapurine DNMT 1 Inhibitors with In Vivo Efficacy in DLBCL” (J Med Chem, 2025)
Activity calls are given as the source filed them. The calls are words filed in the database; no cut-off is given here.

What was measured:
[1] = molecular target: T1, DNA (cytosine-5)-methyltransferase 1 (Homo sapiens, UniProt P26358); assay: Inhibition of DNMT1 in human DOHH-2 cells assessed as inhibition of H3K9 methylation level at 1 uM incubated for 48 hrs by Western blot analysis; format: cell-based
T1 sequence (P26358 whole entry): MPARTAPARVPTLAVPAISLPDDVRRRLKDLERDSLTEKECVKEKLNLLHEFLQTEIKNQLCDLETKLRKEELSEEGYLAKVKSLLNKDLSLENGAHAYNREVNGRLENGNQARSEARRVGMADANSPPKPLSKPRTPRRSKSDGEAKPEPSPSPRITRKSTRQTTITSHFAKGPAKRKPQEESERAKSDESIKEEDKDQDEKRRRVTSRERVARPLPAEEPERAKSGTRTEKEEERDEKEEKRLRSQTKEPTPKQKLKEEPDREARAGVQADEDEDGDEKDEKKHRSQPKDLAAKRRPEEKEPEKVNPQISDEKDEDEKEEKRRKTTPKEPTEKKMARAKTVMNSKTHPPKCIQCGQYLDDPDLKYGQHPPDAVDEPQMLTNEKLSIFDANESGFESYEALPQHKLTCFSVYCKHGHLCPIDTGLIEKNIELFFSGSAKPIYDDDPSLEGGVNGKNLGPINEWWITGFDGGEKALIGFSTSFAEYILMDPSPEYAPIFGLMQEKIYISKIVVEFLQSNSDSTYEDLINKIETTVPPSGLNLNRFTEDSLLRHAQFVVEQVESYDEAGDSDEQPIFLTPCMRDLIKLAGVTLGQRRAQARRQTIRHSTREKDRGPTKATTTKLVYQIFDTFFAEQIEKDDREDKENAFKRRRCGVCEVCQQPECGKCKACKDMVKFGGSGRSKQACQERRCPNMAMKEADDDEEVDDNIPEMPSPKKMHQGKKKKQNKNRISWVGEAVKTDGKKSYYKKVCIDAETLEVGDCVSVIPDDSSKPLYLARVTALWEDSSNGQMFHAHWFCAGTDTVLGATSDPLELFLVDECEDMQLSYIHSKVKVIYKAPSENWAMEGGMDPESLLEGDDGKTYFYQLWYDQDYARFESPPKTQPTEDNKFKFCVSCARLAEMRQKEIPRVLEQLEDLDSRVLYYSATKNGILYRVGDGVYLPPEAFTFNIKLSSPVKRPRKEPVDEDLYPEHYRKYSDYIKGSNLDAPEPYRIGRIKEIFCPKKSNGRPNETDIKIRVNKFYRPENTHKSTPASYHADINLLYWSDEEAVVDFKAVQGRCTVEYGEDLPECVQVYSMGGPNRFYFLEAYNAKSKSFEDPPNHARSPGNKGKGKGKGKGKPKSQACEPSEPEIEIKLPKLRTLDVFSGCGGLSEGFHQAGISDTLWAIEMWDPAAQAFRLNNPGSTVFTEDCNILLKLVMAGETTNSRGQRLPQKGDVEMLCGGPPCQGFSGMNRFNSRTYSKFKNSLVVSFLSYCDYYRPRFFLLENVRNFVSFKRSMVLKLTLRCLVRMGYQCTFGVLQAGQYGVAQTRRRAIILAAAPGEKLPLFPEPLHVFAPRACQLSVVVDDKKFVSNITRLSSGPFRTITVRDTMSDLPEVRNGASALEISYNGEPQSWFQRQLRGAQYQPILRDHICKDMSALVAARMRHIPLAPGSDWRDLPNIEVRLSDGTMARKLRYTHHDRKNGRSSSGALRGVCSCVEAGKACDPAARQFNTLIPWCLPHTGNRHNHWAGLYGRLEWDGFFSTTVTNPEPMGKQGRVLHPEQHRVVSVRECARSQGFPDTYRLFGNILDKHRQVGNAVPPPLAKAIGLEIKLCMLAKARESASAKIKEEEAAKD

TMD8 [2] = assay: Induction of cell cycle arrest in human TMD8 cells assessed as accumulation of cells at S phase at 0.25 uM incubated for 24 hrs by PI staining based flow cytometry analysis (reference value: 39.0%); format: functional
THP-1 = assay: Antiproliferative activity against human THP-1 cells assessed as inhibition of cell viability measured after 72 hrs by MTT assay; format: functional, cell-based; conditions: THP-1, 72 h
[3] = Subacute toxicity in Balb/C mouse assessed as change in body weight at 10 to 30 mg/kg, iv administered three times in a week for 2 weeks; format: organism-based; conditions: in vivo, 336 h, dose 10-30 mg/kg
DOHH-2 [4] = assay: Induction of cell cycle arrest in human DOHH-2 cells assessed as accumulation of cells at G0-G1 phase at 1 uM incubated for 24 hrs by PI staining based flow cytometry analysis (reference value: 27.1%); format: functional
TMD8 [5] = assay: Induction of cell cycle arrest in human TMD8 cells assessed as accumulation of cells at G0-G1 phase at 0.25 uM incubated for 24 hrs by PI staining based flow cytometry analysis (reference value: 40.7%); format: functional
[6] = molecular target: T1, DNA (cytosine-5)-methyltransferase 1; assay: Inhibition of DNMT1 in human DOHH-2 cells assessed as inhibition of 5-methylcytosine level at 10 to 1000 nM incubated for 48 hrs by Western blot analysis; format: cell-based; conditions: dose 10-1000 nM
[7] = Antitumor activity against human TMD8 cells harbouring TP53 mutant xenografted in mouse model assessed as tumor inhibition rate at 10 mg/kg, iv administered three times a week relative to control; format: functional; parameters: scale not given: the % may be the effect or the level left
TMD8 [8] = assay: Induction of apoptosis in human TMD8 cells assessed as late apoptotic cells at 10 uM measured after 48 hrs by annexin-V/FITC and PI staining based flow cytometry analysis (reference value: 5.13%); format: functional
[9] = molecular target: T1, DNA (cytosine-5)-methyltransferase 1; assay: Inhibition of DNMT1 in human DOHH-2 cells assessed as inhibition of DNA methylation incubated for 48 hrs by Western blot analysis; format: cell-based; conditions: dose 10-1000 nM
[10] = molecular target: DNA (cytosine-5)-methyltransferase 3B (Homo sapiens, UniProt Q9UBC3); assay: Inhibition of DNMT3B (unknown origin) preincubated for 15 mins followed by substrate and [3H-SAM] addition and measured after 60 mins by microbeta analysis
HCT-116 = assay: Antiproliferative activity against human HCT-116 cells assessed as inhibition of cell viability measured after 72 hrs by MTT assay; format: functional, cell-based; conditions: HCT-116, 72 h
DOHH-2 [11] = assay: Induction of apoptosis in human DOHH-2 cells assessed as early apoptotic cells at 1 uM measured after 48 hrs by annexin-V/FITC and PI staining based flow cytometry analysis (reference value: 5.69%); format: functional
[12] = Apparent clearance during terminal phase in Sprague-Dawley rat at 10 mg/kg, po measured upto 24 hrs by LC/MS/MS analysis; format: ADME, organism-based; conditions: in vivo, read-out: CLz/F (converted)
U2932 = assay: Antiproliferative activity against human U2932 cells assessed as inhibition of cell viability measured after 72 hrs by MTT assay; format: functional, cell-based; conditions: U2932, 72 h
[13] = Volume of distribution at steady state in Sprague-Dawley rat at 10 mg/kg, po measured upto 24 hrs by LC/MS/MS analysis; format: ADME, organism-based; conditions: in vivo
MV4-11 = assay: Antiproliferative activity against human MV4-11 cells assessed as inhibition of cell viability measured after 72 hrs by MTT assay; format: functional, cell-based; conditions: MV4-11, 72 h
DOHH-2 [14] = assay: Induction of apoptosis in human DOHH-2 cells assessed as early apoptotic cells at 5 uM measured after 48 hrs by annexin-V/FITC and PI staining based flow cytometry analysis (reference value: 5.69%); format: functional
[15] = Subacute toxicity in Balb/C mouse assessed as effect on red blood cells at 30 mg/kg, iv administered three times in a week for 2 weeks; format: organism-based; conditions: in vivo, 336 h
[16] = molecular target: T1, DNA (cytosine-5)-methyltransferase 1; assay: Inhibition of DNMT1 (unknown origin) preincubated for 15 mins followed by substrate and [3H-SAM] addition and measured after 60 mins by microbeta analysis
[17] = molecular target: T2, Histone-lysine N-methyltransferase EHMT2 (Homo sapiens) (UniProt Q96KQ7); assay: Inhibition of G9a (unknown origin) at 5 uM preincubated for 15 mins followed by substrate and [3H-SAM] addition and measured after 60 mins by microbeta analysis relative to control; conditions: time 75.0 min
T2 sequence (whole entry): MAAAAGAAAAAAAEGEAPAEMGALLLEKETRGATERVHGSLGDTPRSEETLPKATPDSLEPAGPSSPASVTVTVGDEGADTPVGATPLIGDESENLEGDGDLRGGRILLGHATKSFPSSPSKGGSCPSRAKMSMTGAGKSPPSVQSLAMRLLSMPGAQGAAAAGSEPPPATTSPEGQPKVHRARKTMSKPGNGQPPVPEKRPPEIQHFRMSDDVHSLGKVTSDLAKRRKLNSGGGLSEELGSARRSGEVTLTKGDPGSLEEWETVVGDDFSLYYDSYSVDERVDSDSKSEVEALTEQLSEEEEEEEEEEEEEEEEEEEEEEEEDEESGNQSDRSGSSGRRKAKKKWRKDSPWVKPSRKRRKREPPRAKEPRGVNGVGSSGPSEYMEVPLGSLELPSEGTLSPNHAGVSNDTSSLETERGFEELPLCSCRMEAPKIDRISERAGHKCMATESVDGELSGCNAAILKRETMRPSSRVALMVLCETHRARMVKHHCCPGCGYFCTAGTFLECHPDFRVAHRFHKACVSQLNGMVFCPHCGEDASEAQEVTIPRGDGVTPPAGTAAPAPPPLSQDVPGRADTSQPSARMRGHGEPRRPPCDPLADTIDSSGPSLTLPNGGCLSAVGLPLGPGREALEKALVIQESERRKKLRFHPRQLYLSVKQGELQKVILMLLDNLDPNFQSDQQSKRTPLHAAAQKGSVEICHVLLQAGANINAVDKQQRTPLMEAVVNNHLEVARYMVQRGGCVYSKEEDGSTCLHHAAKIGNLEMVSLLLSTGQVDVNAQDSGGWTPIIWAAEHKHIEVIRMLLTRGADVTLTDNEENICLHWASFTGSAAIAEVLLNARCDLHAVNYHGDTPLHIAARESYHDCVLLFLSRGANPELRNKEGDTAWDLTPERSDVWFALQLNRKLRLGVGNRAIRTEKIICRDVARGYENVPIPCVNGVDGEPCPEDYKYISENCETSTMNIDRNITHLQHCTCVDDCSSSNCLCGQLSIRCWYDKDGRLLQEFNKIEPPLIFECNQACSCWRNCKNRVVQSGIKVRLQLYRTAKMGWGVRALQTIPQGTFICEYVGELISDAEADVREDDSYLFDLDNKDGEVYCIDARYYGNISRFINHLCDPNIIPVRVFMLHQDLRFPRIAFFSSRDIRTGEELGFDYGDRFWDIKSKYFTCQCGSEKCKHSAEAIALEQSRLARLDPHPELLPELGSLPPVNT

- inhibition [1]: Active
- IC50 (THP-1): 2370 nM
- inhibition [6]: Active
- inhibition [9]: Active
- IC50 [10]: > 20000 nM
- IC50 (HCT-116): 720 nM
- CL/F [12]: 322 mL/min/kg
- Vdss [13]: 574.7 L/kg
- IC50 (MV4-11): 950 nM
- IC50 [16]: 2420 nM
- inhibition [17]: 0.3%
Compound: CN1CCC(Nc2nc(-c3ccnc(F)c3)nc3c2ccn3CCCN2CCCC2)CC1
- Activity (TMD8 [2]): 37.8%
- Activity [3]: Non-toxic
- Activity (DOHH-2 [4]): 42.2%
- Activity (TMD8 [5]): 37.9%
- Activity [7]: 58%
- Activity (TMD8 [8]): 12.9%
- Activity (DOHH-2 [11]): 24%
- IC50 (U2932): 540 nM
- Activity (DOHH-2 [14]): 44.7%
- Activity [15]: Non-toxic
